Patent US4613602A, “Ranitidine derivative useful in the treatment of ulcer” (Magis Farmaceutici s.r.l., priority 1984, dated 1986)

What was measured:
[1] = system: gastric secretion induced by histamine; assay: Anti-H2 activity, gastric secretion in rats in vivo induced by histamine; design: species or system rat; conditions: 50 mg/kg i.p.; for pH variation from the beginning of the treatment / Area: mean ± ES; for Area: control 184.93, *p ≤ 0.01, **p ≤ 0.01
Protocol: Anti-H2 activity. Gastric secretion in rats in vivo induced by histamine. The anti-secretory activity has been studied by the method by Gosh, M. N., Schild, M. O. [Brit. J. Pharmacol., 13, 54 (1958)]. | Antihistaminic anti-H2 activity, gastric secretion in rats, in vivo, | induced by histamine. | Histamine perfused into vein 200 μg/kg/min at the flow rate of 0.1 | ml/min. | Perfusion of stomach with 0.00025 N NaOH at the flow rate of 1 | ml/min.

H2-receptors = target: T1, H2-receptors (Rattus norvegicus, UniProt P25102); assay: Antagonism to histamine in isolated uterus of female rat under estrus; conditions: for Relaxation with histamine 10^-2 g/l, after the administration / Relaxation with histamine 10^-2 g/l, Δ: basal value 11.5
T1 construct: functional antagonism of histamine-induced relaxation
T1 sequence (P25102 whole entry): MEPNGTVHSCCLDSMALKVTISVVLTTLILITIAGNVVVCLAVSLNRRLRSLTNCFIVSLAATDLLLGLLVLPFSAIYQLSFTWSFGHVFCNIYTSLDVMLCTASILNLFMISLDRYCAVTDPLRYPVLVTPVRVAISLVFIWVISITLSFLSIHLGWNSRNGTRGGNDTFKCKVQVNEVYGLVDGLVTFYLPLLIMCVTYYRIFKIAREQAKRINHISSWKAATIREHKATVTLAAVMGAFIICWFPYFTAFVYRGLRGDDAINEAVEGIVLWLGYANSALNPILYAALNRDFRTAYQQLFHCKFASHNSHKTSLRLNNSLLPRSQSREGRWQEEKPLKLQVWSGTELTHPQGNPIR

[2] = Acute toxicity (LD50) in mouse, Lichtfield and Wilcoxon; conditions: in vivo, 14 days observation
From the text: (§1) The characteristics of high activity and of practical absence of side effects have been evaluated by studying the acute toxicity, the activity on indomethacin-induced ulcers, on gastric secretion, on histamine-inducedgastric hyperacidity, and on H2 --receptors of isolated uterus of guinea pig.
(§2) The acute toxicity has been studied on male and female mice of Swiss strain, and on albino male and female rats of Wistar strain, by administering the active principle by the oral way, by intravenous way, and by intramuscular way.
(§3) For each administering way envisaged, doses in geometrical progression have been tested.
(§4) At the end of the observation time period of 14 days, the LD50 and the related fiducial limits have been computated according to the method by Licthfield and Wilcoxon [Pharmacol. Exp. Theor., 118, 96-99 (1949)].

gastric secretion = assay: Therapeutical activity, overall statement; conditions: in vivo
[3] = system: indomethacin-induced ulcers; assay: Anti-ulcer activity, indomethacin-induced ulcers in rat; type: in vivo; conditions: 25 mg/kg p.o.; for Inhibition percentage (ulcer): relative to control; for mm of ulcer: control 18.4
From the text: This activity has been evaluated by using the method of indomethacin-induced ulcers in rat [Bhargava, K. P., Gupta M. B. and Tangri, K. K.: European J. of Pharmacology, 22, 191-195 (1973)].
The product has been administered as dissolved in carboxymethylcellulose at 0.2% and Tween 80 at 1% concentration.

mice and rats = assay: Acute toxicity, overall comparison (mouse and rat); type: in vivo; conditions: whole of the data of Table 1
From the text: as §1, §2, §3, §4

[4] = Acute toxicity (LD50) in rat, Lichtfield and Wilcoxon; conditions: in vivo, 14 days observation, read-out: DL50
From the text: as §1, §2, §3, §4

[5] = im, intramuscular administering, read-out: DL50
[6] = intravenous administering, read-out: DL50
[7] = oral administering, read-out: DL50 (95 fiducial limits)
[8] = im, intramuscular administering

SMILES | pH variation from the beginning of the treatment ([1]; 0 min) [pH] | % Δ (percent increase of area relatively to the control) [1] [%] | Area [1] [mm^2] | pH variation from the beginning of the treatment ([1]; 5 min) [pH] | pH variation from the beginning of the treatment ([1]; 10 min) [pH] | pH variation from the beginning of the treatment ([1]; 15 min) [pH] | pH variation from the beginning of the treatment ([1]; 20 min) [pH] | pH variation from the beginning of the treatment ([1]; 25 min) [pH] | pH variation from the beginning of the treatment ([1]; 30 min) [pH] | pH variation from the beginning of the treatment ([1]; 35 min) [pH] | pH variation from the beginning of the treatment ([1]; 40 min) [pH] | pH variation from the beginning of the treatment ([1]; 45 min) [pH] | pH variation from the beginning of the treatment ([1]; 50 min) [pH] | pH variation from the beginning of the treatment ([1]; 55 min) [pH] | pH variation from the beginning of the treatment ([1]; 60 min) [pH] | LD50 at 336 h [2, 5] [mg/kg] | LD50 at 336 h [2, 6] [mg/kg] | LD50 at 336 h [2, 7] [mg/kg] | Inhibition percentage (ulcer) [3] [percentage] | mm of ulcer [3] [mm] | further results
CN(C)Cc1ccc(CSCCNC(=C[N+](=O)[O-])N2CCN(C)CC2)o1 [Methylpiperazino-ranitidine, 1-N-[2-[[5-[(dimethylamino)-methyl]-furfuryl]-thio]-ethyl]-amino-1-[4-methylpiperazino]-2-nitroethene] | 8.68 | 32.84 | 245.67 | 7.21 | 5.85 | 4.62 | 4.43 | 4.39 | 4.27 | 4.06 | 4.05 | 3.97 | 3.92 | 3.99 | 3.95 | 300 | 120 | 2610 | 85.9 | 2.6 | action prolonged in time, pH value from the 35th to the 60th minute [1]: from the 35th to the 60th minute the pH value remains nearly constant; Relaxation with histamine 10^-2 g/l, after the administration (H2-receptors; 6.75 × 10^-3 g/l, N° 5): 2.5; Relaxation with histamine 10^-2 g/l, Δ (H2-receptors; 6.75 × 10^-3 g/l, N° 5): 9; inhibition at 6.75 µg/mL (H2-receptors; rat, 6.75 × 10^-3 g/l, N° 5, read-out: Inhibition percentage (relaxation with histamine 10^-2 g/l)): 78.2%; therapeutical activity compared with ranitidine (gastric secretion): practically overlapping to that of ranitidine; anti-ulcer activity compared with ranitidine [3]: same anti-ulcer activity as ranitidine; toxicity compared with ranitidine (mice and rats): constantly results less toxic than ranitidine; LD50 at 336 h [4, 8]: 2000 mg/kg; LD50 at 336 h ([4]; intravenous administering): 110 mg/kg; LD50 at 336 h ([4]; oral administering): 5500 mg/kg
CNC(=C[N+](=O)[O-])NCCSCc1ccc(CN(C)C)o1 [Ranitidine, ranitidine] | 8.80 | 45.47 | 269.02 | 6.12 | 4.06 | 4.06 | 4.28 | 4.48 | 4.67 | 4.89 | 5.16 | 5.33 | 5.40 | 5.57 | 5.69 | 280 | 80 | 1700 | 84.2 | 2.9 | Relaxation with histamine 10^-2 g/l, after the administration (H2-receptors; 5 × 10^-3 g/l, N° 5): 3; Relaxation with histamine 10^-2 g/l, Δ (H2-receptors; 5 × 10^-3 g/l, N° 5): 8.5; inhibition at 5 µg/mL (H2-receptors; rat, read-out: Inhibition percentage (relaxation with histamine 10^-2 g/l)): 73.9%; LD50 at 336 h [4, 8]: 2020 mg/kg; LD50 at 336 h ([4]; intravenous administering): 93 mg/kg; LD50 at 336 h ([4]; oral administering): > 5000 mg/kg
